Columns and labels:
Assay in all cases: relative viability (nuclei count vs DMSO), 5 days (fraction); higher = more cells survive
BGJ398 + Luminespib = compound: CCN1CCN(c2ccc(Nc3cc(N(C)C(=O)Nc4c(Cl)c(OC)cc(OC)c4Cl)ncn3)cc2)CC1 [BGJ398] + CCNC(=O)c1noc(-c2cc(C(C)C)c(O)cc2O)c1-c1ccc(CN2CCOCC2)cc1 [Luminespib] (partner 0.01 µM)
Method in brief: (§1)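 A single step with final 0.05% Triton X-100, 1% formaldehyde and 1 ug/ml Hoechst fixed the cells and stained nuclei 5 days after treatment. Lung cancer cell lines in 1536-well plates had been treated by pin tool the day after seeding with one drug alone or a fixed anchor-drug dose plus five library-drug doses (not always all listed) in √10 steps, and nuclei were counted on 4× images. Relative viability is the ratio of nuclei in treated wells to nuclei in vehicle wells, taken as the median of duplicate plates.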

[1] = compound: C1=CC2=NC=CN=C2C=C1/C=C/3\C(=O)NC(=O)S3 + O=C(CCCCCCC(=O)Nc1ccccc1)NO [Vorinostat] (partner 1 µM)
Method in brief: as §1

BGJ398 + Olaparib = compound: CCN1CCN(c2ccc(Nc3cc(N(C)C(=O)Nc4c(Cl)c(OC)cc(OC)c4Cl)ncn3)cc2)CC1 [BGJ398] + O=C(c1cc(Cc2n[nH]c(=O)c3ccccc23)ccc1F)N1CCN(C(=O)C2CC2)CC1 [Olaparib] (partner 8 µM)
Method in brief: as §1

BGJ398 + Tozasertib = compound: CCN1CCN(c2ccc(Nc3cc(N(C)C(=O)Nc4c(Cl)c(OC)cc(OC)c4Cl)ncn3)cc2)CC1 [BGJ398] + Cc1cc(Nc2cc(N3CCN(C)CC3)nc(Sc3ccc(NC(=O)C4CC4)cc3)n2)n[nH]1 [Tozasertib] (partner 0.1 µM)
Method in brief: as §1

Cell Line | relative viability (BGJ398 + Luminespib; first compound 0.01 µM) | relative viability (BGJ398 + Luminespib; first compound 0.03162 µM) | relative viability (BGJ398 + Luminespib; first compound 0.1 µM) | relative viability (BGJ398 + Luminespib; first compound 0.3162 µM) | relative viability (BGJ398 + Luminespib; first compound 1 µM) | relative viability ([1]; first compound 0.02 µM) | relative viability ([1]; first compound 0.06325 µM) | relative viability ([1]; first compound 0.2 µM) | relative viability ([1]; first compound 0.6325 µM) | relative viability ([1]; first compound 2 µM) | relative viability (BGJ398 + Olaparib; first compound 0.01 µM) | relative viability (BGJ398 + Olaparib; first compound 0.03162 µM) | relative viability (BGJ398 + Olaparib; first compound 0.1 µM) | relative viability (BGJ398 + Olaparib; first compound 0.3162 µM) | relative viability (BGJ398 + Olaparib; first compound 1 µM) | relative viability (BGJ398 + Tozasertib; first compound 0.01 µM) | relative viability (BGJ398 + Tozasertib; first compound 0.03162 µM) | relative viability (BGJ398 + Tozasertib; first compound 0.1 µM) | relative viability (BGJ398 + Tozasertib; first compound 0.3162 µM) | relative viability (BGJ398 + Tozasertib; first compound 1 µM)
NCI-H2126 | 0.894 | 0.973 | 0.926 | 0.891 | 0.832 | 0.666 | 0.825 | 0.843 | 0.801 | 0.462 | 0.953 | 0.864 | 0.964 | 0.865 | 0.918 | 0.892 | 0.825 | 0.911 | 0.927 | 0.868
LXF-289 | 0.668 | 0.643 | 0.578 | 0.634 | 0.657 | 0.778 | 0.576 | 0.73 | 0.778 | 0.852 | 1.01 | 0.973 | 1.17 | 0.919 | 1.07 | 0.173 | 0.189 | 0.207 | 0.167 | 0.196
NCI-H2009 | 1.06 | 1.05 | 1.03 | 1.02 | 0.972 | 0.659 | 0.716 | 0.714 | 0.685 | 0.703 | 0.614 | 0.759 | 0.697 | 0.718 | 0.682 | 0.732 | 0.761 | 0.733 | 0.734 | 0.697
SW 900 | 0.133 | 0.201 | 0.175 | 0.167 | 0.153 | 0.544 | 0.517 | 0.453 |  | 0.647 | 0.867 | 0.822 | 0.851 | 0.679 | 0.761 | 0.55 | 0.552 | 0.495 | 0.484 | 0.429
NCI-H2405 | 0.818 | 0.807 | 0.668 | 0.758 | 0.686 | 1.04 | 1.14 | 1.11 | 1.08 | 0.526 | 0.818 | 0.954 | 0.926 | 0.923 | 0.768 | 0.727 | 0.812 | 0.712 | 0.727 | 0.712
NCI-H1755 | 0.498 | 0.363 | 0.339 | 0.606 | 0.417 | 0.681 | 0.695 | 0.832 | 0.858 | 0.818 | 0.813 | 0.906 | 0.904 | 0.855 | 0.912 | 0.563 | 0.646 | 0.552 | 0.623 | 0.546
LOU-NH91 | 0.34 |  | 0.327 | 0.312 | 0.301 | 0.965 | 0.887 | 0.987 | 0.908 | 0.727 | 0.884 | 0.707 | 0.92 | 0.699 | 0.927 | 0.656 |  | 0.698 | 0.541 | 0.737
NCI-H3122 | 0.0895 | 0.0973 | 0.0991 | 0.0908 | 0.0986 | 0.926 | 0.981 | 1.03 | 1.07 | 1.05 | 0.628 | 0.611 | 0.661 | 0.596 | 0.654 | 0.383 | 0.403 | 0.377 | 0.407 | 0.379
HCC-827 | 0.432 |  | 0.405 | 0.268 | 0.736 | 0.797 | 0.702 | 0.833 | 0.874 | 0.465 | 0.468 |  | 0.583 | 0.482 | 0.628 | 0.325 |  | 0.441 | 0.363 | 0.401
SK-LU-1 | 0.215 | 0.193 | 0.189 | 0.188 | 0.197 | 0.809 | 0.818 | 0.881 | 0.777 | 0.72 | 0.461 | 0.579 | 0.539 | 0.348 | 0.329 | 0.354 | 0.34 | 0.312 | 0.284 | 0.222
